Source: patent US10273242B2, “Compound inhibiting activities of BTK and/or JAK3 kinases” (BEIJING HANMI PHARMACEUTICAL CO., LTD., priority 2013, dated 2019)

Tests used:
JAK3 kinase = target: T1, JAK3 kinase (Homo sapiens, UniProt P52333); experiment: JAK3 kinase activity inhibition assay (ADP-Glo); assay type: biochemical; settings: ATP 10 μM
T1 construct: purchased SignalChem J03-11G
Procedure: The JAK3 kinase (purchased from SignalChem, No.: J03-11G) was diluted with reaction buffer (40 mM Tris-HCl, pH 7.5; 20 mM MgCl2, 0.1 mg/ml BSA; 1 mM DTT) to 2 times of the final concentration (which is 0.5 ng/μL) and added with 5 μL/well to a 96-well plate. The compounds of the present invention were serial diluted with deionized water to four times (i.e., 40 μM, 4 μM, 0.4 μM, 80 nM, 16 nM, 3.2 nM, respectively) of the final concentrations (10 μM, 1 μM, 0.1 μM, 20 nM, 4 nM, 0.8 nM, respectively), and added with 2.5 μL/well to the test wells of the 96-well plate. After incubation at 25° C. for 10 minutes, 10 μM of ATP (purchased from Promega, No.: V9102) and 0.2 μg/μL of Poly E4Y1 (purchased from Sigma, No.: P0275-25MG) were added at 2.5 μL/well and reacted at 25° C. for 60 minutes. After the reaction was completed, 10 μL of the ADP-Glo reagent (ADP-Glo™ kinase assay kit, purchased from Promega, No.: V9102) was added to each well and reacted at 25° C. for 40 minutes. Then 20 μL of the ADP-Glo kinase detection reagent was added to each well and reacted at 25° C. for 30 minutes. The kinase activity was detected by luminescence using the ADP-Glo kinase assay kit according to the manufacture's instruction, and IC50 values of the compounds of the present invention were calculated.

BTK kinase = target: T2, BTK kinase (Homo sapiens, UniProt Q06187); experiment: BTK kinase activity inhibition assay (ADP-Glo); assay type: biochemical; settings: ATP 50 μM
T2 construct: purchased Invitrogen PV3363
Procedure: The BTK kinase (purchased from Invitrogen, No.: PV3363) was diluted with reaction buffer (40 mM Tris-HCl, pH 7.5; 20 mM MgCl2, 0.1 mg/ml BSA; 1 mM DTT; 2 mM MnCl2) to 2 times of the final concentration (which is 1.1 ng/μL) and added with 5 μL/well to a 96-well plate. The compounds of the present invention were serial diluted with deionized water to four times (i.e., 40 μM, 4 μM, 0.4 μM, 80 nM, 16 nM, 3.2 nM, respectively) of the final concentrations (10 μM, 1 μM, 0.1 μM, 20 nM, 4 nM, 0.8 nM, respectively), and added at 2.5 μL/well to the test wells of the 96-well plate. After incubation at 25° C. for 10 minutes, ATP (50 μM) (purchased from Promega, No.: V9102) and 0.2 μg/μL of Poly E4Y1 (purchased from Sigma, No.: P0275-25MG) were added with 2.5 μL/well and incubated at 25° C. for 120 minutes. After the reaction was completed, 10 μL of the ADP-Glo reagent (ADP-Glo™ kinase assay kit, purchased from Promega, No.: V9102) was added to each well, and reacted at 25° C. for 40 minutes. Then 20 μL of the ADP-Glo kinase detection reagent was added to each well and reacted at 25° C. for 30 minutes. The kinase activity was detected by luminescence using the ADP-Glo kinase assay kit according to the manufacture's instruction, and IC50 values of the compounds of the present invention were calculated.

CTLL-2 cells = experiment: IL-2 induced CTLL-2 cell proliferation assay (CCK-8); assay type: cell-based; settings: Mus musculus, IL-2 induced proliferation, 24 hours
Procedure: The compounds of the present invention were serial diluted with RPMI-1640 complete medium (purchased from Gibco, No.: 22440) to three times (i.e., 3 μM, 0.6 μM, 120 nM, 24 nM, 4.8 nM, 0.96 nM, respectively) of the final concentrations (1 μM, 0.2 μM, 40 nM, 8 nM, 1.6 nM, 0.32 nM, respectively), and added at 50 μL/well to the test wells of a 96-well plate. Control wells with IL-2 (referred to as IL-2^+) (IL-2 was purchased from R & D, No.: 402-ML-020/CF) and without IL-2 (referred to as IL-2^−) (with addition of 50 μL of the medium). CTLL-2 cells (purchased from ATCC, No.: TIB-214) at the logarithmic growth phase were rinsed with PBS buffer (pH 7.2), then resuspended in RPMI-1640 complete medium without IL-2, and seeded at 50000 cells/50 μL/well in the 96-well plate. The plate was placed at 37° C., 5% CO2 and pre-incubated for 1 hour. Then, to the test wells and the IL-2^+ control well RPMI-1640 complete medium containing IL-2 (50 μL/well) was added, while to the IL-2^− control well RPMI-1640 complete medium without IL-2 (50 μL/well) was added. The cells were stimulated for 24 hours at 37° C., 5% CO2. After this, the 96-well plate was taken out from the incubator. […] Absorption was determined at 450 nm of wavelength, and IC50 values of the compounds of the present invention were thereby calculated.

T1 sequence (P52333 781-1124 limits assumed): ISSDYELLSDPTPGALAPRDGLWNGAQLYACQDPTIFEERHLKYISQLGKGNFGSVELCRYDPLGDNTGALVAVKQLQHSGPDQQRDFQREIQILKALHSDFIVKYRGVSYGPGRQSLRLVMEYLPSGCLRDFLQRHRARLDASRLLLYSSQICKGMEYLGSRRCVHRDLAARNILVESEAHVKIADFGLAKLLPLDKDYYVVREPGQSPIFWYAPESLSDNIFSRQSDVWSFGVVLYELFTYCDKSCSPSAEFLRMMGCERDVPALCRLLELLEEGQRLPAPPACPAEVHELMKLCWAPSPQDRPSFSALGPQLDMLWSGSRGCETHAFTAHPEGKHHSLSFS
T2 sequence (Q06187 whole entry): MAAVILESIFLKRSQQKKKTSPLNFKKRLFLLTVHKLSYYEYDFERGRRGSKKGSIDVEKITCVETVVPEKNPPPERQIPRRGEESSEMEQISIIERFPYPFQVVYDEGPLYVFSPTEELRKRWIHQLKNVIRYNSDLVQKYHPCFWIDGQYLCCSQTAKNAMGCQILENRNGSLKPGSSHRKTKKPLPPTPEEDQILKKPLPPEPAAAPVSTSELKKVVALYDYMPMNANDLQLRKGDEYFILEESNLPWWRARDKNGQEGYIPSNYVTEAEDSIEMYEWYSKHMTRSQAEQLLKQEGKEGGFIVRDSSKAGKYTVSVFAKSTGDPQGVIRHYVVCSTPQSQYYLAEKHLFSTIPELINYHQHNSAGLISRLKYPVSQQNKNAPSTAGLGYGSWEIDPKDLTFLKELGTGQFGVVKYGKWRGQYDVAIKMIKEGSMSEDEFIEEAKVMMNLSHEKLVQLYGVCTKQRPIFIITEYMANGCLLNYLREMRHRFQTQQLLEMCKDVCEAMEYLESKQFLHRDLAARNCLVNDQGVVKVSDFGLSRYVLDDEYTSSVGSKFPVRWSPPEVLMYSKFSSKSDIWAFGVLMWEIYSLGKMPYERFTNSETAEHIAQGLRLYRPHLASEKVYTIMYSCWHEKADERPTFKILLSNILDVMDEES

| Structure (SMILES) | IC50 (JAK3 kinase) [µM] | IC50 (BTK kinase) [µM] | IC50 (CTLL-2 cells) [µM] |
| --- | --- | --- | --- |
| C=CC(=O)N1CC[C@@H](Nc2nc(Nc3cc(C)ns3)nn3cccc23)C1 [Example 137] | ≤ 0.01 | ≤ 0.05 | 0.1 to 1 |
| C=CC(=O)N1CC(CNc2nc(Nc3cc(C)ns3)nc3ccsc23)C1 [Example 71] | ≤ 0.01 | ≤ 0.05 | – |
| C=CC(=O)N1CCC[C@@H](Nc2nc(Nc3cc(C)ns3)nc3sccc23)C1 [Example 104] | 0.01 to 0.1 | ≤ 0.05 | – |
| C=CC(=O)N1CC(CNc2nc(Nc3cc(C)no3)nc3ccsc23)C1 [Example 69] | 0.01 to 0.1 | ≤ 0.05 | – |
| C=CC(=O)N1CC(CNc2nc(Nc3cc(C)[nH]n3)nc3ccsc23)C1 [Example 65] | 0.01 to 0.1 | ≤ 0.05 | – |
| C=CC(=O)N1CCC[C@@H](Nc2nc(Nc3cccs3)nc3ccsc23)C1 [Example 84] | 0.01 to 0.1 | ≤ 0.05 | – |
| C=CC(=O)N1CC[C@@H](Nc2nc(Nc3cc(C)no3)nc3ccsc23)C1 [Example 79] | 0.01 to 0.1 | 0.1 to 1 | – |
| C=CC(=O)N1CC[C@@H](Nc2nc(Nc3cc(C)ns3)nc3ccoc23)C1 [Example 94] | ≤ 0.01 | ≤ 0.05 | – |
| C=CC(=O)N1CC(CNc2nc(Nc3cnn(CCOC)c3)nc3ccsc23)C1 [Example 115] | 0.01 to 0.1 | ≤ 0.05 | – |
| C=CC(=O)N1CC(CNc2nc(Nc3cnn(C)c3)nc3ccsc23)C1 [Example 61, 1-(3-(((2-((1-methyl-1H-pyrazol-4-yl)amino)thieno[3,2-d]pyrimidin-4-yl)amino)methyl)azetidin-1-yl)prop-2-en-1-one] | ≤ 0.01 | ≤ 0.05 | – |
| C=CC(=O)N1CCC[C@@H](Nc2nc(Nc3cnn(C)c3)nn3cccc23)C1 [Example 135] | 0.01 to 0.1 | ≤ 0.05 | – |
| C=CC(=O)N1CCC[C@@H](Nc2nc(Nc3cc(C)ns3)nn3cccc23)C1 [Example 134, (R)-1-(3-((2-((3-methyl-isothiazol-5-yl)amino)pyrrolo[2,1-f][1,2,4]triazin-4-yl)amino)piperidin-1-yl)prop-2-en-1-one] | ≤ 0.01 | ≤ 0.05 | ≤ 0.1 |
| C=CC(=O)N1CC(CNc2nc(Nc3nccs3)nc3ccsc23)C1 [Example 74] | 0.1 to 1 | 0.05 to 0.1 | – |
| C=CC(=O)N1CC(CNc2nc(Nc3cccs3)nc3ccsc23)C1 [Example 72] | 0.01 to 0.1 | ≤ 0.05 | – |
| C=CC(=O)N1CC(CNc2nc(Nc3cnoc3)nc3ccsc23)C1 [Example 73] | 0.01 to 0.1 | ≤ 0.05 | – |
| C=CC(=O)N1CC(CNc2nc(Nc3cc(C(C)C)no3)nc3ccsc23)C1 [Example 70] | 0.01 to 0.1 | 0.05 to 0.1 | – |

More lines, main results first:

| IC50 (JAK3 kinase) [µM] | IC50 (BTK kinase) [µM] | Structure (SMILES) | IC50 (CTLL-2 cells) [µM] |
| --- | --- | --- | --- |
| 0.01 to 0.1 | ≤ 0.05 | C=CC(=O)N1CC[C@@H](Nc2nc(Nc3cnn(C(C)C)c3)nc3ccsc23)C1 [Example 119] | – |
| 0.01 to 0.1 | ≤ 0.05 | C=CC(=O)N1CC[C@@H](Nc2nc(Nc3cnn(C4CCCC4)c3)nc3ccsc23)C1 [Example 121] | – |
| 0.01 to 0.1 | ≤ 0.05 | C=CC(=O)N1CCC[C@@H](Nc2nc(Nc3cnn(C4CCC4)c3)nc3ccsc23)C1 [Example 129] | – |
| 0.01 to 0.1 | ≤ 0.05 | C=CC(=O)N1CCC[C@@H](Nc2nc(Nc3cnn(C(C)C)c3)nc3ccsc23)C1 [Example 128] | – |
| 0.01 to 0.1 | ≤ 0.05 | C=CC(=O)N1CC[C@@H](Nc2nc(Nc3cnn(CCN(C)C)c3)nc3ccsc23)C1 [Example 124] | – |
| 0.01 to 0.1 | ≤ 0.05 | C=CC(=O)N1CCC[C@@H](Nc2nc(Nc3cn[nH]c3)nc3ccsc23)C1 [Example 81] | – |
| ≤ 0.01 | ≤ 0.05 | C=CC(=O)N1CC[C@@H](Nc2nc(Nc3cnn(CCOC)c3)nc3ccsc23)C1 [Example 122] | – |
| 0.01 to 0.1 | ≤ 0.05 | C=CC(=O)N1CC[C@@H](Nc2nc(Nc3cnn(CC)c3)nc3ccsc23)C1 [Example 118] | – |
| ≤ 0.01 | ≤ 0.05 | C=CC(=O)N1CC[C@@H](Nc2nc(Nc3cnn(C4CCOCC4)c3)nc3ccsc23)C1 [Example 125] | – |
| 0.01 to 0.1 | ≤ 0.05 | C=CC(=O)N1CCC[C@@H](Nc2nc(Nc3cnn(C4CCCC4)c3)nc3ccsc23)C1 [Example 130] | – |
| 0.01 to 0.1 | ≤ 0.05 | C=CC(=O)N1CC(CNc2nc(Nc3cnn(C4CCC4)c3)nc3ccsc23)C1 [Example 111] | – |
| 0.01 to 0.1 | ≤ 0.05 | C=CC(=O)N1CC[C@@H](Nc2nc(Nc3cnn(CCCOC)c3)nc3ccsc23)C1 [Example 123] | – |
| ≤ 0.01 | ≤ 0.05 | C=CC(=O)N1CCC[C@@H](Nc2nc(Nc3cnoc3)nc3ccsc23)C1 [Example 83] | – |
| 0.01 to 0.1 | ≤ 0.05 | C=CC(=O)N1CCC[C@@H](Nc2nc(Nc3cnn(C)c3)nc3ccsc23)C1 [Example 80] | – |
| 0.01 to 0.1 | 0.05 to 0.1 | C=CC(=O)N1CC[C@@H](Nc2nc(Nc3cnoc3)nc3ccsc23)C1 [Example 78] | – |
| 0.01 to 0.1 | ≤ 0.05 | C=CC(=O)N1CC[C@@H](Nc2nc(Nc3cnn(C)c3)nc3ccsc23)C1 [Example 75] | – |
| 0.01 to 0.1 | ≤ 0.05 | C=CC(=O)N1CC[C@@H](Nc2nc(Nc3cnn(C)c3)nc3ccoc23)C1 [Example 93] | – |
| 0.1 to 1 | 0.05 to 0.1 | C=CC(=O)N1CC[C@@H](Nc2nc(Nc3cnn(C)c3)nc3sccc23)C1 [Example 101] | – |
